Measured values: PMC4362760, “JAK2^V617F Drives Mcl-1 Expression and Sensitizes Hematologic Cell Lines to Dual Inhibition of JAK2 and Bcl-xL” (PLoS ONE, 2015)

Legend:
[1] = test system: HEL cells; assay: alamarBlue cell viability, JAKi-I/ABT-263 combination, 72 hr, HEL; assay type: cell-based; details: Jaki-1 0 uM
Description: (§1) Transfection of siRNAs was performed using Lipofectamine RNAiMAX according to the manufacturer’s recommendations. […] Caspase-3 activity was determined using the Caspase-GLO 3/7 Assay (Promega) in parallel with the CellTiter-GLO viability assay (Promega). The data are expressed as Caspase-3/7 activity divided by cell viability.
(§2) Caspase-3 activity was determined at each time point. Data are from duplicate samples and are representative of at least three independent experiments. (D-G) Cells were treated in combination as indicated, and cell viability was determined after 72 hr. Data are means of duplicate determinations, and are representative of at least three independent experiments. […] Drugs were added simultaneously, and cell viability was determined after 72 hr. The data were then analyzed using the drug-drug interaction model of Bliss additivity^16 to define dose combinations that were synergistic (values >15; red), antagonistic (values <-15; blue), or without effect (-15<values<15; gray). (I) Model of JAK2/Bcl-2 family inhibitor synergy. JAK2^V617F constitutively phosphorylates and activates STAT3/5, thus enforcing expression of the transcriptional target, Mcl-1. Mcl-1 collaborates with Bcl-XL to oppose apoptosis and support viability.
(§3) Supplementary file pone.0114363.s006.xls: S6 Dataset Cells were treated in combination as indicated, and cell viability was determined using alamarBlue after 72 hr. Data are means of duplicate determinations, and are representative of at least three independent experiments. (XLS) Click here for additional data file.

[2] = test system: MV4;11 cells; assay: alamarBlue cell viability, JAKi-I/ABT-263 combination, 72 hr, MV4;11; assay type: cell-based; details: MV4;11, 72h, Jaki-1 0 uM
Description: as §1, §2, §3

[3] = test system: SET-2 cells; assay: alamarBlue cell viability, JAKi-I/ABT-263 combination, 72 hr, SET-2; assay type: cell-based; details: SET-2, 72h, Jaki-1 0 uM
Description: as §1, §2, §3

[4] = test system: JAK2 V617F-positive and -negative leukemia cell lines; assay: Drug-drug interaction across leukemia lines: ABT-263 dose shift and Bliss additivity matrix, 72-hr cell viability; assay type: cell-based; details: JAKi-I and ABT-263 0.03-1 μM matrix, 72-hr viability, cell lines carrying JAK2 V617F
Description: as §1, §2

[5] = test system: multiple xenograft models; details: oral, single agent and in combination with standard of care chemotherapies; cited from earlier work
[6] = target: Wee1 (Homo sapiens, UniProt P30291); assay: TR-FRET Kinome Wee1; assay type: binding; details: Wee1 Carna Biosciences .015(Subs Conc)
Sequence of Wee1 (P30291 whole entry): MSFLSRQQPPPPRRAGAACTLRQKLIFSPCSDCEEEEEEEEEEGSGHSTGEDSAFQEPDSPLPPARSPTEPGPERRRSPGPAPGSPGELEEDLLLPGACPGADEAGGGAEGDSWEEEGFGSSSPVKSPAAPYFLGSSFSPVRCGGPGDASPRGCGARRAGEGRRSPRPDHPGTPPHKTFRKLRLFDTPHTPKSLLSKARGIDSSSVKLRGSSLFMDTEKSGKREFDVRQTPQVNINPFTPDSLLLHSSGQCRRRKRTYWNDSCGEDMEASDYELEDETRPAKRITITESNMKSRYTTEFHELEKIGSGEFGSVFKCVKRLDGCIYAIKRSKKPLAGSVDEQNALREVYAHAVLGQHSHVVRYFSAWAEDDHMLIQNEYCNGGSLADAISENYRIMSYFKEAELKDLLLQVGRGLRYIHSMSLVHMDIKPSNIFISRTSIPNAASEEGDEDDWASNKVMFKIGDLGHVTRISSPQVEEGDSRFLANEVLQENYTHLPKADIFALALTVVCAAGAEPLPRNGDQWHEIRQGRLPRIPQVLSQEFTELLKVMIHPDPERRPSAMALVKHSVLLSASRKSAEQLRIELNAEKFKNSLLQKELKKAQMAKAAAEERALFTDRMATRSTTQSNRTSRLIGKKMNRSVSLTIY
Excerpt: (§4) (XLS) Click here for additional data file.

[7] = target: Rock2 (Homo sapiens, UniProt O75116); assay: TR-FRET Kinome Rock2; assay type: binding; details: Rock2 Invitrogen .012(Subs Conc)
Excerpt: as §4

[8] = target: DYRK1B (Homo sapiens, UniProt Q9Y463); assay: TR-FRET Kinome DYRK1B; assay type: binding; details: DYRK1B Invitrogen .05(Subs Conc)
Sequence of DYRK1B (Q9Y463 whole entry): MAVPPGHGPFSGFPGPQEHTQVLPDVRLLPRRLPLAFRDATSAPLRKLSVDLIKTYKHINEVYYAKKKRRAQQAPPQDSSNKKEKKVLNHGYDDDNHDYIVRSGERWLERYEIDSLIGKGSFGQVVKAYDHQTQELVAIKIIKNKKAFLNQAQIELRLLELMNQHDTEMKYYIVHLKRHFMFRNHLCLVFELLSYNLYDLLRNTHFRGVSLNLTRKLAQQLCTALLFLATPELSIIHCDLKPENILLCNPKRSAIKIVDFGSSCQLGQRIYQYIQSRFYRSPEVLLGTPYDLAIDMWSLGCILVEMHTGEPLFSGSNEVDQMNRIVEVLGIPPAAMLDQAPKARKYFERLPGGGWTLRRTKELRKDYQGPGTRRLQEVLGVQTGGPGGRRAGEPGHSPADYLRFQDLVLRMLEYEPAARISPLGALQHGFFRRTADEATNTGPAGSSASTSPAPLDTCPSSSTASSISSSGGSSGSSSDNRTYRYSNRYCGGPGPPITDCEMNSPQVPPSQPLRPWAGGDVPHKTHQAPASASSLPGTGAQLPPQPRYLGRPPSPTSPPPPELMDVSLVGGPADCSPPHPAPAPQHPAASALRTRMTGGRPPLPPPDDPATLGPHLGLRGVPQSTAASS
Excerpt: as §4

[9] = target: Pim2 (Homo sapiens, UniProt Q9P1W9); assay: TR-FRET Kinome Pim2; assay type: binding; details: Pim2 Millipore .025(Subs Conc)
Sequence of Pim2 (Q9P1W9 whole entry): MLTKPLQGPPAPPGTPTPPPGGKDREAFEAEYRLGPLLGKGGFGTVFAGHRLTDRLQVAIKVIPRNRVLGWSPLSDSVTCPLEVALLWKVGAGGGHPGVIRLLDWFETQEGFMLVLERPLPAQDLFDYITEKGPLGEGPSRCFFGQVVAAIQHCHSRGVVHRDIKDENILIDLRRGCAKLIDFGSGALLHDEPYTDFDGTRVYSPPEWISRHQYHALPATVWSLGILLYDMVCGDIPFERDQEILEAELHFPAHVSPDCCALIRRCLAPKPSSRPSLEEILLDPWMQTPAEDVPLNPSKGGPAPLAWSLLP
Excerpt: as §4

[10] = target: CDK11; assay: TR-FRET Kinome CDK11; assay type: binding, human; details: CDK11 Abbott .025(Subs Conc)
Excerpt: as §4

[11] = target: MAP2K3 (Homo sapiens, UniProt P46734); assay: TR-FRET Kinome MAP2K3; assay type: binding; details: MAP2K3 Invitrogen .075(Subs Conc)
Sequence of MAP2K3 (P46734 whole entry): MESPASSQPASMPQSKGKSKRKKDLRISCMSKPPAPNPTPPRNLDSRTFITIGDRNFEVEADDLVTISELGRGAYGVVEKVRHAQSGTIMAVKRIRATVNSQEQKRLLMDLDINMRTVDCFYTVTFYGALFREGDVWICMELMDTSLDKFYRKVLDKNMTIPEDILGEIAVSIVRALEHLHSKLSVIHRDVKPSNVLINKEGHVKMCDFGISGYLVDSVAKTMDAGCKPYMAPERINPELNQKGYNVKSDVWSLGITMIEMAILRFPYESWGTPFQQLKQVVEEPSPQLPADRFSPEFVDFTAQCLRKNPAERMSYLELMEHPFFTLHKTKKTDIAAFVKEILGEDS
Excerpt: as §4

[12] = test system: Mcl-1 mRNA; assay: Mcl-1 mRNA abundance by qPCR in SET-2, UKE-1, HEL, MV4;11, K562 cells; assay type: cell-based; details: for MCL-1 % Control: treated vs non-treated (100.0); for MCL-1 Mean QTY: treated, normalised mRNA quantity by qPCR
[13] = target: TAOK2 (Homo sapiens, UniProt Q9UL54); assay: TR-FRET Kinome TAOK2; assay type: binding; details: TAOK2 Invitrogen .2(Subs Conc)
Sequence of TAOK2 (Q9UL54 whole entry): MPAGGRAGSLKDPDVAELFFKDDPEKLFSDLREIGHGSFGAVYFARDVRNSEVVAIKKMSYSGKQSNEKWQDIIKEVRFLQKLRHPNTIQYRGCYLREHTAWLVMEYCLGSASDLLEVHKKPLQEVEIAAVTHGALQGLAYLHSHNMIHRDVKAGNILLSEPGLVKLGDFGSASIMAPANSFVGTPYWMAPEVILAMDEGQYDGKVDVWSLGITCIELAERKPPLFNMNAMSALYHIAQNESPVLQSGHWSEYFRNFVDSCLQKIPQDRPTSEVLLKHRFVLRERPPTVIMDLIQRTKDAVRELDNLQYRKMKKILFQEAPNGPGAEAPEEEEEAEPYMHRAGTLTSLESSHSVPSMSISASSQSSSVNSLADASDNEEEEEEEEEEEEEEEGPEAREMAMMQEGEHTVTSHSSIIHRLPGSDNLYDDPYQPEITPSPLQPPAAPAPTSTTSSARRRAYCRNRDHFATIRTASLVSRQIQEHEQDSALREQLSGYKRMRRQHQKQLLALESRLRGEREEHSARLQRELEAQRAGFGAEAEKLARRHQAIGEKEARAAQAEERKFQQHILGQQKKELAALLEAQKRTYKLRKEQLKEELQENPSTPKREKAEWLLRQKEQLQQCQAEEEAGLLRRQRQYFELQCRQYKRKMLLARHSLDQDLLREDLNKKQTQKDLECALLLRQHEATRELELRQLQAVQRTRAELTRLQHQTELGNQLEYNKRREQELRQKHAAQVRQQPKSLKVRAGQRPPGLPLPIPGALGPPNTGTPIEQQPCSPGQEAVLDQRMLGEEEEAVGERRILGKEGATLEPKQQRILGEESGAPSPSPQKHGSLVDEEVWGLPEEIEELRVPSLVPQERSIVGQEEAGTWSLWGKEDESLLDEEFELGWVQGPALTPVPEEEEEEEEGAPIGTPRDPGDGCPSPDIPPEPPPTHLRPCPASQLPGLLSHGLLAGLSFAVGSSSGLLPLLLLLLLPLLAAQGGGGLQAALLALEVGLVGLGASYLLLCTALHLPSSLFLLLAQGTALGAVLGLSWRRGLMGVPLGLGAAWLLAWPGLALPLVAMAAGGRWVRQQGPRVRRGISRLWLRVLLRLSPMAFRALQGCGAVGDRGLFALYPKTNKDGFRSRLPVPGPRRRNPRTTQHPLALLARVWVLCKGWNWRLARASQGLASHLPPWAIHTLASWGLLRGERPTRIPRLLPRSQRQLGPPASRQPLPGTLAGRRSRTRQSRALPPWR
Excerpt: as §4

[14] = target: Abl (Homo sapiens, UniProt P00519); assay: TR-FRET Kinome Abl; assay type: binding; details: Abl Invitrogen .025(Subs Conc)
Excerpt: as §4

[15] = target: T1, Syk CatDom (Homo sapiens, UniProt P43405); assay: TR-FRET Kinome Syk CatDom; assay type: binding; details: Syk CatDom .006(Subs Conc)
T1 construct: Syk CatDom
Excerpt: as §4

[16] = target: Akt1 (Homo sapiens, UniProt P31749); assay: TR-FRET Kinome Akt1; assay type: binding; details: Akt1 Invitrogen .2(Subs Conc)
Sequence of Akt1 (P31749 whole entry): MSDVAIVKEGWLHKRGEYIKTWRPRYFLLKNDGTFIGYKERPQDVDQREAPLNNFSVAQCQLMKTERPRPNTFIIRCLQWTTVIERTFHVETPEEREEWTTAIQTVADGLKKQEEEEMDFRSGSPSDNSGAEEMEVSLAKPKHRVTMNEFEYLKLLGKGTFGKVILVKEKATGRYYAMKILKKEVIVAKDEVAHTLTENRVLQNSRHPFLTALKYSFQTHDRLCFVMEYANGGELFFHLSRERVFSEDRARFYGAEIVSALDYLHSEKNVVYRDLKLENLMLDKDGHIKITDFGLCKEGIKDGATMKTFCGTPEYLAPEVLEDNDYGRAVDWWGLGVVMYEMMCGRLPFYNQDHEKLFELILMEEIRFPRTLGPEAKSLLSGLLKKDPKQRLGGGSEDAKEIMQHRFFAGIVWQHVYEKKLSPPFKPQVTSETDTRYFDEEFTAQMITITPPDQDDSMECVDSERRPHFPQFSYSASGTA
Excerpt: as §4

[17] = target: cdk2 (Homo sapiens, UniProt P24941); assay: TR-FRET Kinome cdk2; assay type: binding; details: cdk2 Invitrogen .05(Subs Conc)
Excerpt: as §4

[18] = target: MAP3K10 (Homo sapiens, UniProt Q02779); assay: TR-FRET Kinome MAP3K10; assay type: binding; details: MAP3K10 Invitrogen .005(Subs Conc)
Sequence of MAP3K10 (Q02779 whole entry): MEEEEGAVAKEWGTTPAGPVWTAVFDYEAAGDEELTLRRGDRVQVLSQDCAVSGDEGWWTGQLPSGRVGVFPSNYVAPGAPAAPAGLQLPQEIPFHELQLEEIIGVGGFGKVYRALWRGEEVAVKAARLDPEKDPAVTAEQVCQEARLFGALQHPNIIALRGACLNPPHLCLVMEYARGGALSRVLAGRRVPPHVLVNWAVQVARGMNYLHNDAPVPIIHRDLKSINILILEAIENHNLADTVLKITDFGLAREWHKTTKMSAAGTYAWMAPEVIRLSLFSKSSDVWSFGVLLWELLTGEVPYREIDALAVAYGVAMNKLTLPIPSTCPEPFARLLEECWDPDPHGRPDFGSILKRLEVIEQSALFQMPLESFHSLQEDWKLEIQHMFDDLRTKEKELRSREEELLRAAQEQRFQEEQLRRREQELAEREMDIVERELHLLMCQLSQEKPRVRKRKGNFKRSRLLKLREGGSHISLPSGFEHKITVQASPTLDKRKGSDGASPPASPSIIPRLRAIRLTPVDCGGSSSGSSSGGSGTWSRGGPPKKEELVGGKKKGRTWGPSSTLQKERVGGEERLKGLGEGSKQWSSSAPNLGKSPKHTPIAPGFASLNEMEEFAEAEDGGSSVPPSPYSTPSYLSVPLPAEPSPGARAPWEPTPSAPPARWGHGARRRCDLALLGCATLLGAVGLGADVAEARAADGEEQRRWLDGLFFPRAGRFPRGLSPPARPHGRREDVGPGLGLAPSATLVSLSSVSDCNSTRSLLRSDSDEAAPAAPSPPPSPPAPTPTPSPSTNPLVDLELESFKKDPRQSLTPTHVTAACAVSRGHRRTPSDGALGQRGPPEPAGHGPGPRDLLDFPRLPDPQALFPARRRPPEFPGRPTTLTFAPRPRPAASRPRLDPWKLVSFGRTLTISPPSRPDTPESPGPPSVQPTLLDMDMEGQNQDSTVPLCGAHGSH
Excerpt: as §4

[19] = target: AMPK; assay: TR-FRET Kinome AMPK; assay type: binding, human; details: AMPK Invitrogen .1(Subs Conc)
Excerpt: as §4

[20] = target: STK33 (Homo sapiens, UniProt Q9BYT3); assay: TR-FRET Kinome STK33; assay type: binding; details: STK33 Invitrogen .005(Subs Conc)
Excerpt: as §4

[21] = target: STK16 (Homo sapiens, UniProt O75716); assay: TR-FRET Kinome STK16; assay type: binding; details: STK16 Invitrogen IVGN Tracer .05(Subs Conc)
Sequence of STK16 (O75716 whole entry): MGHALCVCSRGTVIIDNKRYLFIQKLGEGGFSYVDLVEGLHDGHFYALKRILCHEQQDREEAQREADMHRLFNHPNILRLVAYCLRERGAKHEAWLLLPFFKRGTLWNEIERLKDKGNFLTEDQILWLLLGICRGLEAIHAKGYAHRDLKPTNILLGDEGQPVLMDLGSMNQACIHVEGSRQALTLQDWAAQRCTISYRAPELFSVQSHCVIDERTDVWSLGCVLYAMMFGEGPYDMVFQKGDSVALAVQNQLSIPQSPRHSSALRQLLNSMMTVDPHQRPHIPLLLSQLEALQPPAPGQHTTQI
Excerpt: as §4

Structure (SMILES): CC1(C)CCC(c2ccc(Cl)cc2)=C(CN2CCN(c3ccc(C(=O)NS(=O)(=O)c4ccc(N[C@H](CCN5CCOCC5)CSc5ccccc5)c(S(=O)(=O)C(F)(F)F)c4)cc3)CC2)C1 [ABT-263]
- Viability (% Inhibiton) ([1]; ABT-263 0.003 uM): 0%
- Viability (% Inhibiton) ([1]; ABT-263 0.01 uM): 0%
- Viability (% Inhibiton) ([1]; ABT-263 0.03 uM): 1%
- Viability (% Inhibiton) ([1]; ABT-263 0.1 uM): 14%
- Viability (% Inhibiton) ([1]; ABT-263 0.3 uM): 55%
- Viability (% Inhibiton) ([1]; ABT-263 1 uM): 95%
- Viability (% Inhibiton) ([2]; ABT-263 0.003 uM): 0%
- Viability (% Inhibiton) ([2]; ABT-263 0.01 uM): 1%
- Viability (% Inhibiton) ([2]; ABT-263 0.03 uM): 0%
- Viability (% Inhibiton) ([2]; ABT-263 0.1 uM): 23%
- Viability (% Inhibiton) ([2]; ABT-263 0.3 uM): 30%
- Viability (% Inhibiton) ([2]; ABT-263 1 uM): 29%
- Viability (% Inhibiton) ([3]; ABT-263 0.003 uM): 0%
- Viability (% Inhibiton) ([3]; ABT-263 0.01 uM): 3%
- Viability (% Inhibiton) ([3]; ABT-263 0.03 uM): 4%
- Viability (% Inhibiton) ([3]; ABT-263 0.1 uM): 28%
- Viability (% Inhibiton) ([3]; ABT-263 0.3 uM): 63%
- Viability (% Inhibiton) ([3]; ABT-263 1 uM): 95%
- drug-drug interaction (Bliss additivity) [4]: Synergistic interactions
- activity in xenograft models [5]: pronounced oral activity

Structure (SMILES): CC(C)(C)c1nc2c3cc[nH]c(=O)c3c3cc(F)ccc3c2[nH]1 [JAKi-I, JAK inhibitor I]
- Ki [6]: > 3.64 µM
- Ki [7]: > 3.33 µM
- Ki [8]: > 2.65 µM
- Ki [9]: 2.11 µM
- Ki [10]: > 3.24 µM
- Ki [11]: > 3.1 µM
- MCL-1 % Control ([12]; HEL cells): 59.2674%
- MCL-1 Mean QTY ([12]; HEL cells): 25.0
- MCL-1 % Control ([12]; K562 cells): 89.9219%
- MCL-1 Mean QTY ([12]; K562 cells): 50.9
- MCL-1 Mean QTY ([12]; MV411 cells): 30.6
- MCL-1 % Control ([12]; SET2 cells): 37.995%
- MCL-1 Mean QTY ([12]; SET2 cells): 47.0
- Mcl-1 transcript level ([12]; following JAK inhibition, 6 hr): sharply declined
- Ki [13]: > 6.61 µM
- Ki [14]: > 2.6 µM
- Ki [15]: > 3.26 µM
- Ki [16]: > 5.01 µM
- Ki [17]: > 3.24 µM
- Ki [18]: > 3.06 µM
- Ki [19]: 0.148 µM
- Ki [20]: 0.0302 µM
- Ki [21]: > 5.41 µM
